Measurements as given in patent US20040254162A1, “Oxazolidinone derivatives as antimicrobials” (priority 2001, published 2004).
In brackets after ≈: the same amount, converted by molar mass. Several values for one entry are separate records, joined by “and”; a condition that tells them apart may be missing. Identical values can stand only once.

Key:
S. pneumoniae = assay: Summary of in vitro activity (MIC); details: S. pneumoniae; for MIC50 / MIC90: Number 19
G +ve bacteria = assay: Summary of in vitro activity (MIC); details: for MIC50 / MIC90: G +ve, Number 49; for Geometric Mean of in vitro activity (MIC): Gram + ve
MRSA 562 [1] = assay: MIC, agar incorporation method; details: for MIC: MRSA 562, Table 5; for MIC MRSA 562: agar incorporation, Table 1
MRSA 562 [2] = assay: In vivo activity against MRSA 562 (ED50); set-up: species or system Methicillin Resistant Staphylococcus aureus; details: PO; MRSA 562 infection
Ent. faecalis ATCC 29212 = assay: MIC, agar incorporation method; details: agar incorporation
Strep. pne. ATCC 6303 = assay: MIC, agar incorporation method; details: agar incorporation
Strep. pyog. ATCC 19615 = assay: MIC, agar incorporation method; details: agar incorporation
S. aureus ATCC 25923 = assay: MIC, agar incorporation method; details: agar incorporation
MRSA 15187 = assay: MIC, agar incorporation method; details: agar incorporation
S. pneum AB 34 = assay: MIC, agar incorporation method; details: agar incorporation
VRE 6A (Ent. faecium 6A) = assay: MIC, agar incorporation method; details: agar incorporation
MRSA 33 = assay: MIC, agar incorporation method; details: agar incorporation
S. aureus = assay: Summary of in vitro activity (MIC); details: S. aureus; for MIC50 / MIC90: Number 8
E. faecalis = assay: Summary of in vitro activity (MIC); details: E. faecalis; for MIC50 / MIC90: Number 7

Row | SMILES | Geometric Mean of in vitro activity (MIC) (S. pneumoniae) | MIC50 (S. pneumoniae) | MIC90 (S. pneumoniae) | MIC50 (G +ve bacteria) | MIC90 (G +ve bacteria) | Geometric Mean of in vitro activity (MIC) (G +ve bacteria) | MIC (MRSA 562 [1]) | MIC MRSA 562 (MRSA 562 [1]) | ED50 (mg/kg body weight) PO (MRSA 562 [2]) | MIC E. faecalis 29212 (Ent. faecalis ATCC 29212) | MIC S. pneum 6303 (Strep. pne. ATCC 6303) | MIC S. pyogenes 19615 (Strep. pyog. ATCC 19615) | MIC S. aureus 25923 (S. aureus ATCC 25923) | MIC MRSA 15187 (MRSA 15187) | MIC S. pneum AB 34 (S. pneum AB 34) | MIC VRE 6A (VRE 6A (Ent. faecium 6A)) | MIC MRSA 33 (MRSA 33) | Geometric Mean of in vitro activity (MIC) (S. aureus) | MIC50 (S. aureus) | MIC90 (S. aureus) | other results
1 | CC1(C)S[C@@H]2[C@H](NC(=O)Cc3ccccc3)C(=O)N2[C@H]1C(=O)O [Penicillin G, reference compound] | 2.16 µg/mL | 4 µg/mL (≈ 12 µM) | 32 µg/mL (≈ 95.7 µM) | 4 µg/mL (≈ 12 µM) | 32 µg/mL (≈ 95.7 µM) | 0.76 µg/mL |  |  |  |  |  |  |  |  |  |  |  |  |  |  | 
2 | CC(=O)NC[C@H]1CN(c2ccc(N3CCN(C(=O)C(=O)c4cccs4)CC3)c(F)c2)C(=O)O1 [Compound No. 07, (S)-N[[3-[3-Fluoro-4-[N-1[4-{2-(2-thienyl)dicarbonyl}]piperazinyl]phenyl]2-oxo-5-oxazolidinyl]methyl]acetamide] |  |  |  |  |  |  | 2 µg/mL (≈ 4.21 µM) | 2 µg/mL (≈ 4.21 µM) | >25 mg/kg body weight | 2 µg/mL (≈ 4.21 µM) | 2 µg/mL (≈ 4.21 µM) | 0.5 µg/mL (≈ 1.05 µM) | 2 µg/mL (≈ 4.21 µM) | 2 µg/mL (≈ 4.21 µM) | 2 µg/mL (≈ 4.21 µM) | 2 µg/mL (≈ 4.21 µM) | 2 µg/mL (≈ 4.21 µM) |  |  |  | 
3 | CC(=O)NC[C@H]1CN(c2ccc(N3CC4C(CN(C)Cc5ccc([N+](=O)[O-])o5)C4C3)c(F)c2)C(=O)O1 (stereo partly drawn) [Compound No. 40, (S)-N-[[3-[3-Fluoro[4-[3-(1α,5α,6α)-6-[N-(5-nitro-2-furylmethyl)-N-methyl]amino-methyl]-3-azabicyclo-[3.1.0]hexane]phenyl]-2-oxo-5-oxazolidinyl]methyl]acetamide] | 0.71 µg/mL | 1 µg/mL (≈ 1.99 µM) | 1 µg/mL (≈ 1.99 µM) | 1 µg/mL (≈ 1.99 µM) | 2 µg/mL (≈ 3.99 µM) | 0.93 µg/mL |  | 1 µg/mL (≈ 1.99 µM) |  | 2 µg/mL (≈ 3.99 µM) |  | 0.125 µg/mL (≈ 0.249 µM) | 2 µg/mL (≈ 3.99 µM) | 2 µg/mL (≈ 3.99 µM) | 2 µg/mL (≈ 3.99 µM) | 4 µg/mL (≈ 7.98 µM) | 2 µg/mL (≈ 3.99 µM) | 1.83 µg/mL | 2 µg/mL (≈ 3.99 µM) | 4 µg/mL (≈ 7.98 µM) | Geometric Mean of in vitro activity (MIC) (E. faecalis): 2.38 µg/mL; MIC50 (E. faecalis): 2 µg/mL (≈ 3.99 µM); MIC90 (E. faecalis): 4 µg/mL (≈ 7.98 µM)
4 | CC(=O)NC[C@H]1CN(c2ccc(N3CCN(Cc4ccc(NC=O)o4)CC3)c(F)c2)C(=O)O1 [Compound No. 67] |  |  |  |  |  |  | 2 µg/mL (≈ 4.35 µM) |  | >25 mg/kg body weight |  |  |  |  |  |  |  |  |  |  |  | 
5 | CC(=O)NC[C@H]1CN(c2ccc(N3CCN(C(=O)c4ccc(Br)o4)CC3)c(F)c2)C(=O)O1 [Compound No. 04] |  |  |  |  |  |  |  |  | >25 mg/kg body weight | 2 µg/mL (≈ 3.93 µM) | 1 µg/mL (≈ 1.96 µM) | 2 µg/mL (≈ 3.93 µM) | 2 µg/mL (≈ 3.93 µM) | 2 µg/mL (≈ 3.93 µM) | 1 µg/mL (≈ 1.96 µM) | 1 µg/mL (≈ 1.96 µM) | 2 µg/mL (≈ 3.93 µM) |  |  |  | 
6 | CC(=O)NC[C@H]1CN(c2ccc(N3CC4C(C3)C4N(C)C(=O)Cc3cccs3)c(F)c2)C(=O)O1 (stereo partly drawn) [Compound No. 71, (S)-N-[[3-[3-Fluoro[4-[3-(1α,5α,6α)-6-[N-(2-thiopheneacetyl)-N-methyl]amino]-3-azabicyclo-[3.1.0]hexane]phenyl]-2-oxo-5-oxazolidinyl]methyl]acetamide] |  |  |  |  |  |  | 4 µg/mL (≈ 8.22 µM) |  | >25 mg/kg body weight | 8 µg/mL and 4 µg/mL | 4 µg/mL (≈ 8.22 µM) | 4 µg/mL and 2 µg/mL | 8 µg/mL and 4 µg/mL | 8 µg/mL and 4 µg/mL | 2 µg/mL and 4 µg/mL | 8 µg/mL and 4 µg/mL | 8 µg/mL and 4 µg/mL |  |  |  | 
7 | CC(=O)NC[C@H]1CN(c2ccc(N3CCC(N(C)Cc4ccc([N+](=O)[O-])o4)CC3)c(F)c2)C(=O)O1 [Compound No. 50, (S)-N-[[3-[4-[4-(N-methyl-N-2-furyl(5-nitro)methyl)aminopiperidine-1-yl]-3-fluorophenyl]-2-oxo-oxazolidin-5-yl]methyl]acetamide] | 1.41 µg/mL | 1 µg/mL (≈ 2.04 µM) | 2 µg/mL (≈ 4.09 µM) | 1 µg/mL (≈ 2.04 µM) | 2 µg/mL (≈ 4.09 µM) | 0.72 µg/mL | 0.5 µg/mL (≈ 1.02 µM) | 0.5 µg/mL (≈ 1.02 µM) |  | 0.5 µg/mL (≈ 1.02 µM) | 0.5 µg/mL (≈ 1.02 µM) | 0.125 µg/mL (≈ 0.255 µM) | 1 µg/mL (≈ 2.04 µM) | 1 µg/mL (≈ 2.04 µM) | 2 µg/mL (≈ 4.09 µM) | 0.25 µg/mL (≈ 0.511 µM) | 1 µg/mL (≈ 2.04 µM) | 1 µg/mL | 1 µg/mL (≈ 2.04 µM) | 2 µg/mL (≈ 4.09 µM) | Geometric Mean of in vitro activity (MIC) (E. faecalis): 0.42 µg/mL; MIC50 (E. faecalis): 0.5 µg/mL (≈ 1.02 µM); MIC90 (E. faecalis): 1 µg/mL (≈ 2.04 µM)
8 | CC(=O)NC[C@H]1CN(c2ccc(N3CCN(C(=O)c4ccc([N+](=O)[O-])o4)CC3)c(F)c2)C(=O)O1 [Compound No. 06, (S)-N-[[3-Fluoro-4-[N-1[4-(5-nitro-2-furoyl)piperazinyl]phenyl]-2-oxo-5-oxazolidinyl]methyl]acetamide] | 1.27 µg/mL | 2 µg/mL (≈ 4.21 µM) | 2 µg/mL (≈ 4.21 µM) | 1 µg/mL (≈ 2.1 µM) | 2 µg/mL (≈ 4.21 µM) | 0.79 µg/mL | 1 µg/mL (≈ 2.1 µM) |  | >25 mg/kg body weight | 1 µg/mL (≈ 2.1 µM) | 2 µg/mL (≈ 4.21 µM) | 2 µg/mL (≈ 4.21 µM) | 1 µg/mL (≈ 2.1 µM) | 0.5 µg/mL (≈ 1.05 µM) | 2 µg/mL (≈ 4.21 µM) | 1 µg/mL (≈ 2.1 µM) | 0.5 µg/mL (≈ 1.05 µM) | 0.74 µg/mL | 1 µg/mL (≈ 2.1 µM) | 1 µg/mL (≈ 2.1 µM) | Geometric Mean of in vitro activity (MIC) (E. faecalis): 0.92 µg/mL; MIC50 (E. faecalis): 1 µg/mL (≈ 2.1 µM); MIC90 (E. faecalis): 1 µg/mL (≈ 2.1 µM)
9 | CC(=O)NC[C@H]1CN(c2ccc(N3CCN(Cc4ccc([N+](=O)[O-])o4)CC3)c(F)c2)C(=O)O1 [Compound No. 15, (S)-N-[[3-[3-fluoro-4-[N-1-[4-{2-furyl-(5-nitro)methyl}]piperazinyl]phenyl]-2-oxo-5-oxazolidinyl]methyl]acetamide] | 1.04 µg/mL | 2 µg/mL (≈ 4.33 µM) | 4 µg/mL (≈ 8.67 µM) | 1 µg/mL (≈ 2.17 µM) | 2 µg/mL (≈ 4.33 µM) | 1.08 µg/mL | 2 µg/mL (≈ 4.33 µM) | 2 µg/mL (≈ 4.33 µM) | 4.33 mg/kg body weight | 2 µg/mL (≈ 4.33 µM) | 1 µg/mL (≈ 2.17 µM) | 1 µg/mL (≈ 2.17 µM) | 2 µg/mL (≈ 4.33 µM) | 2 µg/mL (≈ 4.33 µM) | 2 µg/mL (≈ 4.33 µM) | 1 µg/mL (≈ 2.17 µM) | 2 µg/mL (≈ 4.33 µM) | 1.63 µg/mL | 2 µg/mL (≈ 4.33 µM) | 2 µg/mL (≈ 4.33 µM) | Geometric Mean of in vitro activity (MIC) (E. faecalis): 1.6 µg/mL; MIC50 (E. faecalis): 2 µg/mL (≈ 4.33 µM); MIC90 (E. faecalis): 2 µg/mL (≈ 4.33 µM)
